Reference: patent US20230056135A1, “MONOMER AND MULTIMERIC ANTI-HBV AGENTS” (priority 2018, published 2023)
Read-outs that look alike come from different tables or passages of the source.

How the values were obtained:
[1] = Cellular toxicity assay in HepG2 cells; format: cell-based; conditions: human, HepG2 cells; read-out: Cytotoxicity; CC50 (μM) HepG2
Procedure: (§1) The toxicity of the compounds was assessed in Vero, human PBM, CEM (human lymphoblastoid), MT-2, and HepG2 cells, as described previously (see Schinazi R. F., Sommadossi J.-P., Saalmann V., Cannon D. L., Xie M.-Y., Hart G. C., Smith G. A. & Hahn E. F. Antimicrob. Agents Chemother. 1990, 34, 1061-67). Cycloheximide was included as positive cytotoxic control, and untreated cells exposed to solvent were included as negative controls. The cytotoxicity IC50 was obtained from the concentration-response curve using the median effective method described previously (see Chou T.-C. & Talalay P. Adv. Enzyme Regul. 1984, 22, 27-55; Belen'kii M. S. & Schinazi R. F. Antiviral Res. 1994, 25, 1-11).

[2] = Cellular toxicity assay in human PBM cells; format: cell-based; conditions: human PBM cells, read-out: Cytotoxicity, CC50 (μM) PBM
Procedure: as §1

wild type HBV = test: Anti-HBV assay in AD-38 cell line (HBV in culture supernatant); format: cell-based; conditions: for EC50: read-out: Anti-HBV activity EC50; for EC90: read-out: Anti-HBV activity EC90
Procedure: The anti-HBV activity of the compounds was determined by treating the AD-38 cell line carrying wild type HBV under the control of tetracycline (see Ladner S. K., Otto M. J., Barker C. S., Zaifert K., Wang G. H., Guo J. T., Seeger C. & King R. W. Antimicrob. Agents Chemother. 1997, 41, 1715-20). Removal of tetracycline from the medium [Tet (−)] results in the production of HBV. The levels of HBV in the culture supernatant fluids from cells treated with the compounds were compared with that of the untreated controls. Control cultures with tetracycline [Tet (+)] were also maintained to determine the basal levels of HBV expression. 3TC was included as positive control.
The median effective concentrations (EC50) ranges of several of the compounds described herein against HBV are shown in Table 3: […]

[3] = Cellular toxicity assay in Vero cells; format: cell-based; conditions: African green monkey, Vero cells; read-out: Cytotoxicity; CC50 (μM) VERO
Procedure: as §1

[4] = Cellular toxicity assay in CEM cells; format: cell-based, human; conditions: human, CEM lymphoblastoid cells; CEM cells; read-out: Cytotoxicity; CC50 (μM) CEM
Procedure: as §1

[5] = Hepatitis B virus, AD-38 cell line, Tet (-)

SMILES	CC50 [1]	CC50 ([2]; human)	EC50 (wild type HBV; [5])	EC90 (wild type HBV; [5])	CC50 [3]	CC50 [4]	EC50 (wild type HBV; Hepatitis B virus)	EC50 (wild type HBV; AD-38 cell line, Tet (-))	CC50 [2]
Cc1c(C(=O)C(=O)NCc2cn(CCOCCOCC(COCCOCCn3cc(CNC(=O)C(=O)c4c(C)c(C(=O)Nc5ccc(F)c(F)c5)n(C)c4C)nn3)(COCCOCCn3cc(CNC(=O)C(=O)c4c(C)c(C(=O)Nc5ccc(F)c(F)c5)n(C)c4C)nn3)COCCOCCn3cc(CNC(=O)C(=O)c4c(C)c(C(=O)Nc5ccc(F)c(F)c5)n(C)c4C)nn3)nn2)c(C)n(C)c1C(=O)Nc1ccc(F)c(F)c1 [Compound 110]	> 100 µM	> 100 µM	100 to 1000 nM	1000 to 10000 nM					
Cc1c(C(=O)C(=O)NCCCB2OC3CC4CC(C4(C)C)C3(C)O2)c(C)n(C)c1C(=O)Nc1ccc(F)c(F)c1 (stereo not drawn) [Compound 62, N-(3,4-difluorophenyl)-1,3,5-trimethyl-4-(2-oxo-2-((3-(3a,5,5-trimethylhexahydro-4,6-methanobenzo[d][1,3,2]dioxaborol-2-yl)propyl)amino)acetyl)-1H-pyrrole-2-carboxamide]	6 µM	13 µM	10 to 100 nM	10 to 100 nM	7 µM	4 µM			
C#CCNC(=O)C(=O)c1c(C)c(C(=O)Nc2ccc(F)c(F)c2)n(CC#CC)c1C [Compound 119, 1-(But-2-yn-1-yl)-N-(3,4-difluorophenyl)-3,5-dimethyl-4-(2-oxo-2-(prop-2-yn-1-ylamino)acetyl)-1H-pyrrole-2-carboxamide]	> 100 µM	> 100 µM					10 to 100 nM		
Cc1c(C(=O)C(=O)NCc2cn(CCOCCOCCOCCn3cc(CNC(=O)C(=O)c4c(C)c(C(=O)Nc5ccc(F)c(F)c5)n(C)c4C)nn3)nn2)c(C)n(C)c1C(=O)Nc1ccc(F)c(F)c1 [Compound 94, 4,4′-(2,2′-((((((oxybis(ethane-2,1-diyl))bis(oxy))bis(ethane-2,1-diyl))bis(1H-1,2,3-triazole-1,4-diyl))bis(methylene))bis(azanediyl))bis(2-oxoacetyl))bis(N-(3,4-difluorophenyl)-1,3,5-trimethyl-1H-pyrrole-2-carboxamide)]	> 100 µM	> 100 µM	1 to 10 nM						
C#CCn1c(C)c(C(=O)C(=O)NC(C)(C)C#C)c(C)c1C(=O)Nc1ccc(F)c(F)c1 [Compound 120, N-(3,4-Difluorophenyl)-3,5-dimethyl-4-(2-((2-methylbut-3-yn-2-yl)amino)-2-oxoacetyl)-1-(prop-2-yn-1-yl)-1H-pyrrole-2-carboxamide]	> 100 µM	> 100 µM	0.01 to 0.1 nM	1 to 10 nM					
Cc1c(C(=O)C(=O)NCc2cn(CCOCCOCCOCCOCCOCCn3cc(CNC(=O)C(=O)c4c(C)c(C(=O)Nc5ccc(F)c(F)c5)n(C)c4C)nn3)nn2)c(C)n(C)c1C(=O)Nc1ccc(F)c(F)c1 [Compound 95, 4,4′-(2,2′-((((3,6,9,12,15-Pentaoxaheptadecane-1,17-diyl)bis(1H-1,2,3-triazole-1,4-diyl))bis (methylene))bis(azanediyl))bis(2-oxoacetyl))bis(N-(3,4-difluorophenyl)-1,3,5-trimethyl-1H-pyrrole-2-carboxamide)]								10 to 100 nM	
Cc1c(C(=O)C(=O)NCc2cn(CCOCCOCC(COCCOCCn3cc(CNC(=O)C(=O)c4c(C)c(C(=O)Nc5ccc(F)c(F)c5)n(C)c4C)nn3)COCCOCCn3cc(CNC(=O)C(=O)c4c(C)c(C(=O)Nc5ccc(F)c(F)c5)n(C)c4C)nn3)nn2)c(C)n(C)c1C(=O)Nc1ccc(F)c(F)c1 [Compound 122]			100 to 1000 nM						
Cc1c(C(=O)C(=O)NCc2cn(CCOCCOCC(COCCOCCN=[N+]=[N-])(COCCOCCn3cc(CNC(=O)C(=O)c4c(C)c(C(=O)Nc5ccc(F)c(F)c5)n(C)c4C)nn3)COCCOCCn3cc(CNC(=O)C(=O)c4c(C)c(C(=O)Nc5ccc(F)c(F)c5)n(C)c4C)nn3)nn2)c(C)n(C)c1C(=O)Nc1ccc(F)c(F)c1 [Compound 109]	> 100 µM	> 100 µM	100 to 1000 nM	1000 to 10000 nM					
Cc1c(C(=O)C(=O)NCc2cn(CCCCCCCCn3cc(CNC(=O)C(=O)c4c(C)c(C(=O)Nc5ccc(F)c(F)c5)n(C)c4C)nn3)nn2)c(C)n(C)c1C(=O)Nc1ccc(F)c(F)c1 [Compound 74, 4,4′-(2,2′-(((Octane-1,8-diylbis(1H-1,2,3-triazole-1,4-diyl))bis(methylene))bis(azanediyl))bis(2-oxoacetyl))bis(N-(3,4-difluorophenyl)-1,3,5-trimethyl-1H-pyrrole-2-carboxamide)]	> 100 µM	> 100 µM	0.1 to 1 nM	1 to 10 nM					
CCOP(=O)(Cn1cc(CNC(=O)C(=O)c2c(C)c(C(=O)Nc3ccc(F)c(F)c3)n(C)c2C)nn1)OCC [Compound 68, Diethyl((4-((2-(5-((3,4-difluorophenyl)carbamoyl)-1,2,4-trimethyl-1H-pyrrol-3-yl)-2-oxoacetamido)methyl)-1H-1,2,3-triazol-1-yl)methyl) phosphonate]	> 100 µM						100 to 1000 nM		70 µM
Cc1c(C(=O)C(=O)NCc2cn(CCOCCOCCn3cc(CNC(=O)C(=O)c4c(C)c(C(=O)Nc5ccc(F)c(F)c5)n(C)c4C)nn3)nn2)c(C)n(C)c1C(=O)Nc1ccc(F)c(F)c1 [Compound 89, 4,4′-(2,2′-(((((Ethane-1,2-diylbis(oxy))bis(ethane-2,1-diyl))bis(1H-1,2,3-triazole-1,4-diyl))bis (methylene))bis(azanediyl))bis(2-oxoacetyl))bis(N-(3,4-difluorophenyl)-1,3,5-trimethyl-1H-pyrrole-2-carboxamide)]	> 100 µM	68 µM	1000 to 10000 nM						
Cc1c(C(=O)C(=O)NCc2cn(CCOCCn3cc(CNC(=O)C(=O)c4c(C)c(C(=O)Nc5ccc(F)c(F)c5)n(C)c4C)nn3)nn2)c(C)n(C)c1C(=O)Nc1ccc(F)c(F)c1 [Compound 85, 4,4′-(2,2′-((((oxybis(ethane-2,1-diyl))bis(1H-1,2,3-triazole-1,4-diyl))bis(methylene))bis(azanediyl))bis(2-oxoacetyl))bis(N-(3,4-difluorophenyl)-1,3,5-trimethyl-1H-pyrrole-2-carboxamide)]			1000 to 10000 nM						
Cc1c(C(=O)C(=O)NCc2cn(CCCCCCn3cc(CNC(=O)C(=O)c4c(C)c(C(=O)Nc5ccc(F)c(F)c5)n(C)c4C)nn3)nn2)c(C)n(C)c1C(=O)Nc1ccc(F)c(F)c1 [Compound 71, 4,4′-(2,2′-(((Hexane-1,6-diylbis(1H-1,2,3-triazole-1,4-diyl))bis(methylene))bis(azanediyl))bis(2-oxoacetyl))bis(N-(3,4-difluorophenyl)-1,3,5-trimethyl-1H-pyrrole-2-carboxamide)]	> 100 µM	> 100 µM	100 to 1000 nM	1000 to 10000 nM					
Cc1c(C(=O)C(=O)NCc2cn(CCOCCOCC(COCCOCCN=[N+]=[N-])(COCCOCCN=[N+]=[N-])COCCOCCn3cc(CNC(=O)C(=O)c4c(C)c(C(=O)Nc5ccc(F)c(F)c5)n(C)c4C)nn3)nn2)c(C)n(C)c1C(=O)Nc1ccc(F)c(F)c1 [Compound 108, 4,4′-(2,2′-((((8,8-bis((2-(2-azidoethoxy)ethoxy)methyl)-3,6,10,13-tetraoxapentadecane-1,15-diyl)bis(1H-1,2,3-triazole-1,4-diyl))bis(methylene))bis(azanediyl))bis(2-oxoacetyl))bis(N-(3,4-difluorophenyl)-1,3,5-trimethyl-1H-pyrrole-2-carboxamide)]	> 100 µM	> 100 µM	10 to 100 nM	100 to 1000 nM					
Nc1ccn([C@@H]2CS[C@H](CO)O2)c(=O)n1 [Compound 3TC, lamivudine, reference compound]			100 to 1000 nM	1000 to 10000 nM					
Cc1c(C(=O)C(=O)NCc2cn(CCCCCCCCCCn3cc(CNC(=O)C(=O)c4c(C)c(C(=O)Nc5ccc(F)c(F)c5)n(C)c4C)nn3)nn2)c(C)n(C)c1C(=O)Nc1ccc(F)c(F)c1 [Compound 77, 4,4′-(2,2′-(((decane-1,10-diylbis(1H-1,2,3-triazole-1,4-diyl))bis(methylene))bis(azanediyl))bis (2-oxoacetyl))bis(N-(3,4-difluorophenyl)-1,3,5-trimethyl-1H-pyrrole-2-carboxamide)]	> 100 µM	> 100 µM	1 to 10 nM	100 to 1000 nM					
